Converted amounts (≈) assume the structure as drawn. Where two headings read alike, the source gives them in different places.
Assays:
Alternaria alternata [1] = assay: 3 day MIC, broth microdilution in 25% PDB; type: cell-based; details: for MIC: 72 h, read-out: 3 day MIC
Protocol: (§1) Stock solutions (concentrations of between 4,000 μg/mL to 10,000 μg/mL; stored at −18° C.) of the above antifungals were prepared in dimethyl sulfoxide (DMSO). The stock solutions were further diluted into sterile 25% potato dextrose broth (PDB) so that the diluted solutions could be used for the antifungal susceptibility studies. This way, a typical microdilution study would reach a final ratio of about 0.5-2% v/v of DMSO in 25% PDB.
(§2) Spore inocula were prepared in sterile distilled water with 0.1% Tween® 20 (a polysorbate surfactant), and a hemocytometer was used to determine the spore density. Typically, the spore inoculum was prepared fresh prior to each study, and the inoculum was appropriately diluted to a final concentration of 0.4-1×10^5 spores/mL or colony-forming unit (CFU)/mL in each study. The spore suspension can be stored in a refrigerator at 4° C. for up to one week.
(§3) The studies were performed in flat bottom, 96-well microtiter plates (Greiner Bio-One, Frickenhausen, Germany).
(§4) Plates sealed with clear polyester film (VWR, Radnor, Pa.) were incubated at a temperature of about 25° C. The progress of fungal growth was monitored at 48 hours and 72 hours.

[2] = system: Penicillium brevicompactum; assay: 3 day MIC, broth microdilution in 25% PDB; type: cell-based; details: for MIC: 72 h, read-out: 3 day MIC
Protocol: as §1, §2, §3, §4

Penicillium chrysogenum [3] = assay: 3 day MIC, broth microdilution in 25% PDB; type: cell-based; details: for MIC: 72 h, read-out: 3 day MIC
Protocol: as §1, §2, §3, §4

Penicillium corylophilum = assay: 3 day MIC, broth microdilution in 25% PDB; type: cell-based; details: for MIC: 72 h, read-out: 3 day MIC
Protocol: as §1, §2, §3, §4

Penicillium purpurogenum = assay: 3 day MIC, broth microdilution in 25% PDB; type: cell-based; details: for MIC: 72 h, read-out: 3 day MIC
Protocol: as §1, §2, §3, §4

Stachybotrys chartarum [4] = assay: 3 day MIC, broth microdilution in 25% PDB; type: cell-based; details: for MIC: 72 h, read-out: 3 day MIC
Protocol: as §1, §2, §3, §4

Alternaria alternata [5] = assay: Fungus resistance test after painting over fungal growth (defacement rating); type: cell-based; details: painted over fungal growth
Excerpt: (§5) In this series of experiments, fungal growth was allowed to cover a painted surface (surface containing 2 coats of the unaltered paint) to a defacement rating of 3-5, forming a ‘contaminated surface’. […] The paint application was extended approximately 1-2 cm beyond the edge of the disc onto the NSA medium. Each formulation used a separate brush to avoid cross contamination. The re-painted discs were placed back into the humid environment with elevated temperature to encourage fungal growth.
(§6) This test was used to evaluate the ability of paint films containing antifungal additives to prevent the re-emergence of fungal growth after painting over existing growth.
(§7) Olympic® Home interior flat latex paint (PPG Industries, Pittsburgh, Pa.) and Valspar® QuikHide White flat interior paint (Valspar Corporation, Minneapolis, Minn.) were used for the experiments in this study unless specified. Stock solutions of the antifungal additives of interest were prepared in reagent grade dimethyl sulfoxide (DMSO; Alfa Aesar, Ward Hill, Mass.). Additives were spiked (by adding appropriate amounts of the antifungal stock solutions) into the liquid paint at specified concentrations. Samples of additive-spiked paint were vigorously mixed with a vortex mixer for at least one minute to insure uniform dispersion of the additive in the paint. […] Studies that used other brands of paint followed the same protocol as described for those using the Olympic® Home interior flat latex paint.
(§8) Test surfaces were prepared in triplicate. In most cases, the tested conditions were repeated on a different date, again in triplicate. […] Two coats of paint were applied with a polyester brush to completely cover both faces of the filter paper disc, allowing at least four hours drying time between coats.
(§9) Nutrient-Salts Agar (NSA) media was prepared according to ASTM method G21-13 in 100×15 mm sterile polystyrene petri dishes (VWR® Radnor, Pa.) with a solidified agar layer from 3 to 6 mm (⅛ to ¼ in.) in depth. The agar was allowed to solidify for at least 24 hours before being used. The painted test filter paper discs were placed in the center of the agar plates in a biosafety hood while wearing clean nitrile gloves.
(§10) The paint coatings were evaluated against three representative fungi: Stachybotrys chartarum, Penicillium chrysogenum, and Alternaria alternata. […] Fungal isolates of Alternaria alternata and Penicillium chrysogenum were obtained from the Plant Pathology and Environmental Microbiology Department at Penn State University.
(§11) A spore suspension of each of these fungi was prepared by pouring a 20-mL portion of autoclaved deionized water containing 0.01% Tween® 20 onto a subculture of each fungal species. Spores were counted with the use of a hemocytometer (Hausser Scientific, Horsham, Pa.) under a microscope. Spore suspensions of Stachybotrys chartarum and Penicillium chrysogenum were diluted to 1×10^6 spores/mL with autoclaved deionized water. Spore suspensions of Alternaria alternata were used “as is” in the range of 200,000 to 400,000 spores/mL.
(§12) Painted test surfaces were inoculated with a spray bottle or with a cotton-tipped applicator. To inoculate the sample with a spray bottle, the spore suspension was sprayed twice on the painted test discs with a spray bottle that delivered approximately 0.14 g of fluid per spray. To inoculate the sample with a cotton-tipped applicator, an autoclaved cotton-tipped applicator was submerged in approximately 400 μL of the inoculum solution and applied evenly over the surface of the painted test surface twice.

Penicillium chrysogenum [6] = assay: as above; type: cell-based; details: painted over fungal growth, +200 μg/mL in Valspar QuikHide paint
Excerpt: as §5, §6, §7, §8, §9, §10, §11, §12

Stachybotrys chartarum [7] = assay: as above; type: cell-based; details: painted over fungal growth, +100 μg/mL in Olympic Home paint
Excerpt: as §5, §6, §7, §8, §9, §10, §11, §12

[8] = commercially available fungicidal agents; cited from earlier work
Aspergillus flavus = assay: 3 day MIC, broth microdilution in 25% PDB; type: cell-based; details: 72 h
In short: (§13)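 Agents are diluted from DMSO stocks, giving a final DMSO level of about 0.5-2% v/v. Spore inocula are freshly prepared, hemocytometer-counted and set to 0.4-1×10^5 spores/mL final. Sealed plates sit at about 25° C, and growth is followed at 48 and 72 hours.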

Aspergillus niger = assay: 3 day MIC, broth microdilution in 25% PDB; type: cell-based; details: 72 h
In short: as §13

Mucor spp. = assay: 3 day MIC, broth microdilution in 25% PDB; type: cell-based; details: 72 h
In short: as §13

Rhizopus spp. = assay: 3 day MIC, broth microdilution in 25% PDB; type: cell-based; details: 72 h
In short: as §13

Aureobasidium pullulans = assay: 3 day MIC, broth microdilution in 25% PDB; type: cell-based; details: 72 h
In short: as §13

Fusarium oxysparum ST-33 = assay: 3 day MIC, broth microdilution in 25% PDB; type: cell-based; details: ST33, 72 h
In short: as §13

[9] = Penicillium purpurogenum, 25% PDB
[10] = +100 μg/mL in Olympic Home paint, 7 days
[11] = +100 μg/mL in Olympic Home paint, 14 days
[12] = +100 μg/mL in Olympic Home paint, 21 days

Structure (SMILES)	3 day MIC (Stachybotrys chartarum [4]; 25% PDB)	Average defacement rating ± standard deviation (Alternaria alternata [5]; [10])	Average defacement rating ± standard deviation (Alternaria alternata [5]; [11])	Average defacement rating ± standard deviation (Alternaria alternata [5]; [12])	Average defacement rating ± standard deviation (Penicillium chrysogenum [6]; 7 days)	Average defacement rating ± standard deviation (Penicillium chrysogenum [6]; 14 days)	Average defacement rating ± standard deviation (Penicillium chrysogenum [6]; 21 days)	Average defacement rating ± standard deviation (Stachybotrys chartarum [7]; 7 days)	Average defacement rating ± standard deviation (Stachybotrys chartarum [7]; 14 days)	Average defacement rating ± standard deviation (Stachybotrys chartarum [7]; 21 days)	Solubility in water [8]	MIC (Alternaria alternata [1]; 25% PDB)	MIC ([2]; 25% PDB)	MIC (Penicillium chrysogenum [3]; 25% PDB)	MIC (Penicillium corylophilum; 25% PDB)	MIC (Penicillium purpurogenum; [9])	MIC (Stachybotrys chartarum [4]; 25% PDB)	MIC (Aspergillus flavus)	MIC (Aspergillus niger)	MIC (Mucor spp.)	other results
CCCCNC(=O)OCC#CI [IPBC, 3-Iodo-2-propynylbutylcarbamate]	0.8 µg/mL	5.9 ± 2.9 (9)	3.1 ± 2.4 (9)	3.0 ± 2.5 (9)	6.9 ± 3.8 (9)	4.8 ± 4.0 (9)	3.1 ± 3.4 (9)	1.2 ± 1.3 (9)	0.0 ± 0.0 (9)	0.0 ± 0.0 (9)	156 mg/L (≈ 555 µM)	–	–	–	–	–	–	–	–	–	3 day MIC (Alternaria alternata [1]; 25% PDB): 0.8 µg/mL; 3 day MIC ([2]; 25% PDB): 0.4 µg/mL; 3 day MIC (Penicillium chrysogenum [3]; 25% PDB): 0.2 µg/mL; 3 day MIC (Penicillium corylophilum; 25% PDB): 0.20 µg/mL; 3 day MIC (Penicillium purpurogenum; [9]): <0.1 µg/mL
CCCCCCCCn1sccc1=O [OIT, 2-Octyl-4-isothiazolin-3-one]	–	0.3 ± 0.5 (6)	0.0 ± 0.0 (6)	0.0 ± 0.0 (6)	3.6 ± 2.8 (9)	3.0 ± 3.7 (9)	2.3 ± 40.0 (9)	4.6 ± 3.2 (9)	3.6 ± 3.7 (9)	3.0 ± 3.7 (9)	–	200 µg/mL (≈ 937 µM)	< 0.1 µg/mL	< 0.1 µg/mL	< 0.1 µg/mL	< 0.1 µg/mL	0.1 µg/mL (≈ 0.469 µM)	–	–	–	–
N#Cc1c(Cl)c(Cl)c(Cl)c(C#N)c1Cl [Chlorothalonil, chlorothalonil]	<0.1 µg/mL	–	–	–	0.0 ± 0.0 (9)	0.0 ± 0.0 (9)	0.0 ± 0.0 (9)	2.2 ± 2.1 (9)	2.0 ± 1.7 (9)	2.0 ± 1.7 (9)	<100 mg/L	0.78 µg/mL (≈ 2.93 µM)	< 0.1 µg/mL	< 0.1 µg/mL	0.39 µg/mL (≈ 1.47 µM)	0.78 µg/mL (≈ 2.93 µM)	< 0.1 µg/mL	0.2 µg/mL (≈ 0.752 µM)	0.4 µg/mL (≈ 1.5 µM)	0.8 µg/mL (≈ 3.01 µM)	MIC (Rhizopus spp.): 0.8 µg/mL (≈ 3.01 µM); Average defacement rating ± standard deviation (Alternaria alternata [5]; +1000 μg/mL in Olympic Home paint, 7 days): 0.5 ± 1.4 (9); Average defacement rating ± standard deviation (Alternaria alternata [5]; +1000 μg/mL in Olympic Home paint, 14 days): 0.2 ± 0.5 (9); Average defacement rating ± standard deviation (Alternaria alternata [5]; +1000 μg/mL in Olympic Home paint, 21 days): 0.1 ± 0.3 (9)
O=C1C2CC=CCC2C(=O)N1SC(Cl)(Cl)Cl (stereo not shown) [Captan]	–	3.6 ± 3.9 (9)	2.5 ± 4.0 (9)	2.4 ± 3.8 (9)	0.0 ± 0.0 (9)	0.0 ± 0.0 (9)	0.0 ± 0.0 (9)	0.0 ± 0.0 (6)	0.0 ± 0.0 (6)	0.0 ± 0.0 (6)	3.3 mg/L (≈ 11 µM)	1.6 µg/mL (≈ 5.32 µM)	0.78 µg/mL (≈ 2.59 µM)	0.78 µg/mL (≈ 2.59 µM)	0.78 µg/mL (≈ 2.59 µM)	0.78 µg/mL (≈ 2.59 µM)	0.39 µg/mL (≈ 1.3 µM)	25 µg/mL (≈ 83.2 µM)	16 µg/mL (≈ 53.2 µM)	3.1 µg/mL (≈ 10.3 µM)	MIC (Aureobasidium pullulans): 0.8 µg/mL (≈ 2.66 µM); MIC (Fusarium oxysparum ST-33): 2 µg/mL (≈ 6.65 µM); MIC (Rhizopus spp.): 12.5 µg/mL (≈ 41.6 µM)
Oc1cc(Cl)ccc1Oc1ccc(Cl)cc1Cl [Triclosan, triclosan]	<0.1 µg/mL	3.6 ± 3.5 (9)	2.6 ± 3.7 (9)	2.0 ± 2.9 (9)	0.9 ± 2.7 (9)	0.0 ± 0.0 (9)	0.0 ± 0.0 (9)	0.7 ± 1.2 (9)	0.7 ± 1.2 (9)	0.6 ± 1.0 (9)	12,000 mg/L	–	–	–	–	–	–	–	–	–	MIC (Alternaria alternata [1]): 6.3 µg/mL (≈ 21.8 µM); MIC [2]: 3.1 µg/mL (≈ 10.7 µM); MIC (Penicillium chrysogenum [3]): 6.3 µg/mL (≈ 21.8 µM); MIC (Penicillium corylophilum): 3.13 µg/mL (≈ 10.8 µM); MIC (Penicillium purpurogenum; Penicillium): 3.13 µg/mL (≈ 10.8 µM); MIC (Stachybotrys chartarum [4]): < 0.1 µg/mL
